Laboratory results: the NIST ThermoML archive (doi:10.1021/je700445y)
± gives the expanded uncertainty stated by the source.

Key:
[1] = refractive index (Na D-line) (dimensionless); settings: 293.15 K; 101.33 kPa; Liquid; Standard Abbe refractometry
[2] = Liquid; for mass density: 293.15 K, 101.33 kPa; for vapor or sublimation pressure: Ebulliometric method (Recirculating still)

vapor or sublimation pressure ([2]; 443.8 K) [kPa]	Structure (SMILES)	refractive index [1]	mass density [2] [kg/m3]	vapor or sublimation pressure ([2]; 341.8 K) [kPa]	vapor or sublimation pressure ([2]; 398.96 K) [kPa]
	CCCCCC [hexane]	1.37486 ± 0.00075	660 ± 2	101.33 ± 0.53	
101.33 ± 0.52	C=CCCCCCCCC [1-decene]	1.4214 ± 0.00073	741 ± 1		
	CCCCCCCC [octane]	1.3965 ± 0.00075	708 ± 1		101.33 ± 0.53
